Measurements taken from EP4790066A1, “GLP-1R/GIPR/GCGR TRIPLE AGONIST ANALOGUE AND USE THEREOF” (Shenzhen Bay Laboratory, priority 2023, dated 2025).
*1 amine or outer side, *2 acyl side, *3 side chain or, on linkers, in order; H or OH if unused. Where a SMILES comes first, the peptide text is derived from it. Bridges are numbered along the chain shown (N, C = ends). [ ]: non-standard residue; d: D form. X1 = O=C(O)CCCCCCCCCCCCCCCCCCC(=O)N[C@@H](CCCCNC(=O)COCCOCCNC(=O)COCCOCCNC(=O)CCC(=O)N(CCNC(=O)C[*:1])CCNC(=O)C[*:2])C(=O)O; Phe(2-F) = N[C@@H](Cc1ccccc1F)C(=O)O; Iva = CC[C@](C)(N)C(=O)O; Aib = CC(C)(N)C(=O)O

Tests used:
GLP-1R = target: T1, GLP-1R (Homo sapiens, UniProt P43220); assay: CreLuc method (CRE-luciferase reporter), HEK293/pGM-CREB-L-Luc/GLP-1R pool; type: cell-based; conditions: 6 h incubation, read-out: EC50 (pM) for each receptor GLP-1R
T1 construct: expressed in transfected cells
T1 sequence (P43220 24-463, species assumed): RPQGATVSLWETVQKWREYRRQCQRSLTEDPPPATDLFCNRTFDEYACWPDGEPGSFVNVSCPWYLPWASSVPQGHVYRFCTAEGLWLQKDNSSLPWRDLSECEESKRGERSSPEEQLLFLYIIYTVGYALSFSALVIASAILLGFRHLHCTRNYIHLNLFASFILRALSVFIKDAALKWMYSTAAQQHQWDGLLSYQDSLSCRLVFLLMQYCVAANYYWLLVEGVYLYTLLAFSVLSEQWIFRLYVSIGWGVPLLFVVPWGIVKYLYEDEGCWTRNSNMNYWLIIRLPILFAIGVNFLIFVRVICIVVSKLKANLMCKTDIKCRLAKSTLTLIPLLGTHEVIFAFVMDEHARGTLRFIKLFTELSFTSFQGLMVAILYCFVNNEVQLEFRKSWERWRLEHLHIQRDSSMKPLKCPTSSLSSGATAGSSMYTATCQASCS
Method in brief: (§1)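 Stable HEK293 pools co-expressing each receptor with a CRE-luciferase reporter were plated at 20,000 cells/well in freestyle medium and treated with compound dilution series for 6 h at 37 °C. Luminescence was read with ONE-GLO to derive EC50.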

GCGR [1] = target: T2, GCGR (Homo sapiens, UniProt P47871); assay: CreLuc method (CRE-luciferase reporter), 293HEK/pGM-CREB-L-Luc/GCGR pool; type: cell-based; conditions: 6 h incubation, read-out: EC50 (pM) for each receptor GCGR
T2 construct: expressed in transfected cells
T2 sequence (P47871 26-477, species assumed): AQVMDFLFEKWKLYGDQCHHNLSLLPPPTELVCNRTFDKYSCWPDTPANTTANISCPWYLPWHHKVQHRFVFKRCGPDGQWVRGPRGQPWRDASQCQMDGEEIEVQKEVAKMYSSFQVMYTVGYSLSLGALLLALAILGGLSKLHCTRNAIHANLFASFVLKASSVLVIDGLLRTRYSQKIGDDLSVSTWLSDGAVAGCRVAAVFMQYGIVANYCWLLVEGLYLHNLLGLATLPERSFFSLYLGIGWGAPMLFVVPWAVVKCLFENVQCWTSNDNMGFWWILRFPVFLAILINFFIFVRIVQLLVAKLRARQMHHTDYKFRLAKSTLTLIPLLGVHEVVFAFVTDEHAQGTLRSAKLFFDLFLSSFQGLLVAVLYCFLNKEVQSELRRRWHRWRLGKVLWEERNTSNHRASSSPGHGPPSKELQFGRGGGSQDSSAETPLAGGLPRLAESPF
Method in brief: as §1

GCGR [2] = target: T2, GCGR; assay: cAMP method (HTRF cAMP detection kit), HEK293/pGM-CREB-L-Luc/GCG pool; type: cell-based; conditions: read-out: EC50 (pM) for each receptor GCGR
in vivo = assay: in vivo; design: species or system male SD rats; conditions: rat
Protocol: The pharmacokinetic behavior of target peptide derivatives (or polypeptide derivatives) prepared in Example 1 and Example 2, i.e., TG1-TG94 in rodents was tested. The specific steps are as follows:
The target peptide derivatives (TG1-TG94) to be tested were administered to male SD rats via subcutaneous injection (SC, 3 mg/kg; drug vehicle: PBS, concentration: 1.5 mg/mL; administration volume: 2 mL) and intravenous injection (IV, 1 mg/kg; drug vehicle: PBS, concentration: 0.5 mg/mL; administration volume: 2 mL) as a single dose, respectively. Whole blood samples were collected from the jugular vein or other appropriate vein at the following time points after administration: for SC, 15 min, 30 min, 1 h, 2 h, 4 h, 6 h, 8 h, 24 h, 48 h, 72 h, 96 h, 120 h, and 168 h; for IV, 5 min, 15 min, 30 min, 1 h, 2 h, 4 h, 8 h, 24 h, 48 h, 72 h, 96 h, 120 h, and 168 h. 0.2 mL of blood was collected and transferred into a labeled EDTA-K2 anticoagulant tube. The tube was gently inverted to ensure thorough mixing of the anticoagulant (EDTA-K2) with the blood and immediately placed on wet ice. Plasma separation was performed as soon as possible by centrifugation under the following conditions: 4°C, 6800xg, for 6 min. The plasma samples were stored in a refrigerator at no higher than -20°C and used for analysis when needed.
Under the condition of yellow light in an ice-water bath, except for blank samples, 300 µL of precipitant containing an internal standard was added to a 96-well plate containing 20 µL of standard curve sample, quality control sample, or unknown sample; 300 µL of acetonitrile was added to the blank sample. The mixture was vortexed, mixed well, and then centrifuged. 150 µL of the supernatant after centrifugation was transferred to a new 96-well plate, and 150 µL of ultrapure water was added and mixed well. The above samples were subjected to quantitative analysis using LC-MS analysis with XB-C18 (2.1 * 100 mm, 3 µm) chromatography for gradient elution. The mobile phases used were: mobile phase A = 0.1% formic acid-water; mobile phase B = acetonitrile. Phoenix WinNonlin software was used to calculate the pharmacokinetic parameters. […] Table 5A: Pharmacokinetic parameters of target peptide derivatives

Structure (SMILES): CC[C@H](C)[C@@H]1NC(=O)[C@H](Cc2ccccc2)NC(=O)[C@@H](NC(=O)C(C)(C)NC(=O)[C@H](CCC(N)=O)NC(=O)[C@H](C)NC(=O)[C@H](CCCCNC(C)=O)NC(=O)[C@H](CCCCN)NC(=O)[C@H](CC(=O)O)NC(=O)[C@H](CC(C)C)NC(=O)[C@](C)(CC)NC(=O)[C@@H](NC(=O)[C@H](CO)NC(=O)[C@H](Cc2ccc(O)cc2)NC(=O)[C@H](CC(=O)O)NC(=O)[C@H](CO)NC(=O)[C@@H](NC(=O)[C@H](Cc2ccccc2F)NC(=O)[C@@H](NC(=O)CNC(=O)[C@H](CCC(N)=O)NC(=O)C(C)(C)NC(=O)[C@@H](N)Cc2ccc(O)cc2)[C@@H](C)O)[C@@H](C)O)[C@@H](C)CC)CSCC(=O)NCCN(C(=O)CCC(=O)NCCOCCOCC(=O)NCCOCCOCC(=O)NCCCC[C@H](NC(=O)CCCCCCCCCCCCCCCCCCC(=O)O)C(=O)O)CCNC(=O)CSC[C@@H](C(=O)NCC(=O)NCC(=O)N2CCC[C@H]2C(=O)N[C@@H](CO)C(=O)N[C@@H](CO)C(=O)NCC(=O)N[C@@H](C)C(=O)N2CCC[C@H]2C(=O)N2CCC[C@H]2C(=O)N2CCC[C@H]2C(=O)N[C@@H](CO)C(N)=O)NC(=O)[C@H](CC(C)C)NC(=O)[C@H](CC(C)C)NC(=O)[C@H](Cc2ccc(O)cc2)NC(=O)[C@H](CCC(=O)O)NC1=O [TG52] (H-Y[Aib]QGT[Phe(2-F)]TSDYSI[Iva]LDKK(Ac)AQ[Aib]CFIEYLLCGGPSSGAPPPS-NH2; linker 21-28 via X1)
- EC50 (GLP-1R): 112 pM
- EC50 (GCGR [1]): 173 pM
- EC50 (GCGR [2]): 8.8 pM
- AUC(0-inf) (in vivo; male, SD, iv, 1 mg/kg): 289 µg·h/mL
- AUC(0-t) (in vivo; male, SD, iv, 1 mg/kg): 265 µg·h/mL
- MRT (in vivo; male, SD, iv, 1 mg/kg): 26.5 h
- Vd (in vivo; male, SD, iv, 1 mg/kg): 0.092 L/kg
- clearance (in vivo; male, SD, iv, 1 mg/kg): 3.48 mL/h/kg
- half-life (in vivo; male, SD, iv, 1 mg/kg): 21.5 h
- bioavailability (in vivo; male, SD, sc): 50.9%
- AUC(0-inf) (in vivo; male, SD, sc, 3 mg/kg): 570 µg·h/mL
- AUC(0-t) (in vivo; male, SD, sc, 3 mg/kg): 410 µg·h/mL
- CL/F (in vivo; male, SD, sc, 3 mg/kg): 5.26 mL/h/kg
- Cmax (in vivo; male, SD, sc, 3 mg/kg): 8210 ng/mL
- MRT (in vivo; male, SD, sc, 3 mg/kg): 42.8 h
- Tmax (in vivo; male, SD, sc, 3 mg/kg): 24 h
- half-life (in vivo; male, SD, sc, 3 mg/kg): 26.4 h
- AUC0-t /AUC0-inf (in vivo; iv, 1 mg/kg): 0.918
- Kel (in vivo; iv, 1 mg/kg): 0.0323 h⁻¹
- AUC0-t /AUC0-inf (in vivo; sc, 3 mg/kg): 0.834
- Vz/F (in vivo; sc, 3 mg/kg): 0.200 L/kg
